Measurements published in US7829589B2, “Sulfonamide compounds and uses thereof” (Elixir Pharmaceuticals, Inc., priority 2005, dated 2010).
pKi: −log10 of the molar value.

Target: GHS-R (Homo sapiens, UniProt Q92847)
Assay: GHS-R antagonist activity (Ki) in a cell based assay
Experimental: Cell-Based Activity Assays. For example, the ability of the compound to modulate accumulation of a second messenger signaling component downstream of GHS-R can be evaluated. For example, inositol phosphates (IP), as a result of Gq signaling in a mammalian cell, e.g., a Cos-7 cells. Other tissue culture cells, Xenopus oocytes, and primary cells can also be used.
Phosphatidylinositol turnover assay. One day after transfection COS-7 cells are incubated for 24 hours with 5 μCi of [^3H]-myo-inositol in 1 ml medium supplemented with 10% fetal calf serum, 2 mM glutamine and 0.01 mg/ml gentamicin per well. Cells are then washed twice in buffer, 20 mM HEPES, pH 7.4, supplemented with 140 mM NaCl, 5 mM KCl, 1 mM MgSO4, 1 mM CaCl2, 10 mM glucose, 0.05% (w/v) bovine serum; and incubated in 0.5 ml buffer supplemented with 10 mM LiCl at 37° C. for 30 min. For some assays, it is also useful to incubate the cells with adenosine deaminase ADA (200 U/mg, Boehringer Mannheim, Germany) for 30 min in a concentration of 1 U/ml.
After incubation with the compound of interest for 45 min at 37° C., cells are extracted with 10% ice-cold perchloric acid and placed on ice for 30 min. The resulting supernatants are neutralized with KOH in HEPES buffer, and [^3H]-inositol phosphate is purified on Bio-Rad AG 1-X8 anion exchange resin as described. Assays can be run in duplicate, triplicate, etc. […]

Chain of GHS-R (Q92847 whole entry, species assumed): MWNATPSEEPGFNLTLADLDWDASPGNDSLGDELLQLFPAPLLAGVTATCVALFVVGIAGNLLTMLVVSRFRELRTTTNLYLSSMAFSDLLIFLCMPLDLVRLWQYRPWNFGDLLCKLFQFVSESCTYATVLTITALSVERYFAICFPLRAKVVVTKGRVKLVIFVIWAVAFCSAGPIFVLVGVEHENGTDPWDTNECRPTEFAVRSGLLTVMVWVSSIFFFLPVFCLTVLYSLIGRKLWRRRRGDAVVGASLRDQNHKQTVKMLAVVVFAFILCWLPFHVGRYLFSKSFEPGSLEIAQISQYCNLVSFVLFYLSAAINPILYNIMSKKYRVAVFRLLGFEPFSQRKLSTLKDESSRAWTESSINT

| pKi | SMILES |
| --- | --- |
| > 7.00 | CCN(CC)CCCS(=O)(=O)N[C@H](CCc1ccccc1)c1nc(Cc2ccc(OC)c(OC)c2)n[nH]1 [Compound 32, 3-Diethylamino-propane-1-sulfonic acid {(R)-1-[5-(3,4-dimethoxy-benzyl)-2H-[1,2,4]triazol-3-yl]-3-phenyl-propyl}-amide] |
| ≤ 6.00 | CCN(CC)CCCS(=O)(=O)N[C@H](COCc1ccccc1)c1nc(-c2ccccc2C)no1 [Compound 33, 3-Diethylamino-propane-1-sulfonic acid [(R)-2-benzyloxy-1-(3-o-tolyl-[1,2,4]oxadiazol-5-yl)-ethyl]-amide] |
| 6.00 to 6.30 | CCN(CC)CCCS(=O)(=O)N[C@H](COCc1ccccc1)c1nc(-c2ncccc2C)no1 [Compound 34, 3-Diethylamino-propane-1-sulfonic acid {(R)-2-benzyloxy-1-[3-(3-methyl-pyridin-2-yl)-[1,2,4]oxadiazol-5-yl]-ethyl}-amide] |
| 6.30 to 7.00 | CCN(CC)C1CCC(S(=O)(=O)N[C@H](CCc2ccccc2)c2nnc(-c3ccc(F)cc3)[nH]2)CC1 (stereo partly drawn) [Compound 35, 4-Diethylamino-cyclohexanesulfonic acid {(R)-1-[5-(4-fluoro-phenyl)-4H-[1,2,4]triazol-3-yl]-3-phenyl-propyl}-amide] |
| ≤ 6.00 | CCN(CC)CCS(=O)(=O)N[C@H](CCc1ccccc1)c1nc(-c2c(C)cccc2C)no1 [Compound 36, 2-Diethylamino-ethanesulfonic acid {(R)-1-[3-(2,6-dimethyl-phenyl)-[1,2,4]oxadiazol-5-yl]-3-phenyl-propyl}-amide] |
| 6.00 to 6.30 | CCN(CC)CCCS(=O)(=O)N[C@H](CCc1ccccc1)c1nc(-c2c(OC)cccc2OC)no1 [Compound 37, 3-Diethylamino-propane-1-sulfonic acid {(R)-1-[3-(2,6-dimethoxy-phenyl)-[1,2,4]oxadiazol-5-yl]-3-phenyl-propyl}-amide] |
| > 7.00 | CCN(CC)CCCS(=O)(=O)N[C@H](CCc1ccccc1)c1nc(-c2c[nH]c3ccccc23)n[nH]1 [Compound 38, 3-Diethylamino-propane-1-sulfonic acid {(R)-1-[5-(1H-indol-3-yl)-2H-[1,2,4]triazol-3-yl]-3-phenyl-propyl}-amide] |
| 6.00 to 6.30 | CCN(CC)CCCS(=O)(=O)N[C@H](CCc1ccccc1)c1nc(-c2ccccn2)no1 [Compound 39, 3-Diethylamino-propane-1-sulfonic acid [(R)-3-phenyl-1-(3-pyridin-2-yl-[1,2,4]oxadiazol-5-yl)-propyl]-amide] |
| > 7.00 | CCN(CC)CCCS(=O)(=O)N[C@H](CCc1ccccc1)c1nc(-c2ccc(C#N)cc2)n[nH]1 [Compound 40, 3-Diethylamino-propane-1-sulfonic acid {(R)-1-[5-(4-cyano-phenyl)-2H-[1,2,4]triazol-3-yl]-3-phenyl-propyl}-amide] |
| 6.30 to 7.00 | CCN(CC)CCCS(=O)(=O)N[C@H](CCc1ccccc1)c1nc(-c2cccnc2)no1 [Compound 41, 3-Diethylamino-propane-1-sulfonic acid [(R)-3-phenyl-1-(3-pyridin-3-yl-[1,2,4]oxadiazol-5-yl)-propyl]-amide] |
| ≤ 6.00 | CCN(CC)CCCS(=O)(=O)N[C@H](CCc1ccccc1)c1nc(-c2ccc(C(C)(C)C)cc2)n[nH]1 [Compound 42, 3-Diethylamino-propane-1-sulfonic acid {(R)-1-[5-(4-tert-butyl-phenyl)-2H-[1,2,4]triazol-3-yl]-3-phenyl-propyl}-amide] |
| 6.30 to 7.00 | CCN(CC)CCS(=O)(=O)N[C@H](CCc1ccccc1)c1nc(-c2cccnc2)no1 [Compound 43, 2-Diethylamino-ethanesulfonic acid [(R)-3-phenyl-1-(3-pyridin-3-yl-[1,2,4]oxadiazol-5-yl)-propyl]-amide] |
| > 7.00 | CCN(CC)CCCS(=O)(=O)N[C@H](CCc1ccccc1)c1nc(-c2ccc3ncsc3c2)n[nH]1 [Compound 44, 3-Diethylamino-propane-1-sulfonic acid [(R)-1-(5-benzothiazol-6-yl-2H-[1,2,4]triazol-3-yl)-3-phenyl-propyl]-amide] |
| ≤ 6.00 | CCN(CC)CCCS(=O)(=O)N[C@H](COCc1ccccc1)c1nc(-c2cccnc2)no1 [Compound 45, 3-Diethylamino-propane-1-sulfonic acid [(R)-2-benzyloxy-1-(3-pyridin-3-yl-[1,2,4]oxadiazol-5-yl)-ethyl]-amide] |
| 6.30 to 7.00 | CCN(CC)CCS(=O)(=O)N[C@H](CCc1ccccc1)c1nc(-c2c(OC)cccc2OC)no1 [Compound 46, 2-Diethylamino-ethanesulfonic acid {(R)-1-[3-(2,6-dimethoxy-phenyl)-[1,2,4]oxadiazol-5-yl]-3-phenyl-propyl}-amide] |
| > 7.00 | CCN(CC)CCCS(=O)(=O)N[C@H](CCc1ccccc1)c1nc(-c2ccc3c(c2)OCCO3)n[nH]1 [Compound 47, 3-Diethylamino-propane-1-sulfonic acid {(R)-1-[5-(2,3-dihydro-benzo[1,4]dioxin-6-yl)-2H-[1,2,4]triazol-3-yl]-3-phenyl-propyl}-amide] |
| 6.30 to 7.00 | CCN(CC)CCCS(=O)(=O)N[C@H](CCc1ccccc1)c1nc(-c2ccccc2Cl)no1 [Compound 48, 3-Diethylamino-propane-1-sulfonic acid {(R)-1-[3-(2-chloro-phenyl)-[1,2,4]oxadiazol-5-yl]-3-phenyl-propyl}-amide] |
| ≤ 6.00 | CCN(CC)CCS(=O)(=O)N[C@H](COCc1ccccc1)c1nc(-c2ccccc2OC)no1 [Compound 49, 2-Diethylamino-ethanesulfonic acid {(R)-2-benzyloxy-1-[3-(2-methoxy-phenyl)-[1,2,4]oxadiazol-5-yl]-ethyl}-amide] |
| > 7.00 | CCN(CC)CCCS(=O)(=O)N[C@H](CCc1ccccc1)c1nc(-c2cccc(C#N)c2)n[nH]1 [Compound 50, 3-Diethylamino-propane-1-sulfonic acid {(R)-1-[5-(3-cyano-phenyl)-2H-[1,2,4]triazol-3-yl]-3-phenyl-propyl}-amide] |
| ≤ 6.00 | CCN(CC)CCCS(=O)(=O)N[C@H](COCc1ccccc1)c1nc(-c2ccncc2)no1 [Compound 51, 3-Diethylamino-propane-1-sulfonic acid [(R)-2-benzyloxy-1-(3-pyridin-4-yl-[1,2,4]oxadiazol-5-yl)-ethyl]-amide] |
| 6.30 to 7.00 | CCN(CC)CCCS(=O)(=O)N[C@H](CCc1ccccc1)c1nc(-c2c(C)cccc2C)no1 [Compound 52, 3-Diethylamino-propane-1-sulfonic acid {(R)-1-[3-(2,6-dimethyl-phenyl)-[1,2,4]oxadiazol-5-yl]-3-phenyl-propyl}-amide] |
| > 7.00 | CCN(CC)CCCS(=O)(=O)N[C@H](CCc1ccccc1)c1nc(-c2cccc(Br)c2)n[nH]1 [Compound 53, 3-Diethylamino-propane-1-sulfonic acid {(R)-1-[5-(3-bromo-phenyl)-2H-[1,2,4]triazol-3-yl]-3-phenyl-propyl}-amide] |
| 6.30 to 7.00 | CCN(CC)CCS(=O)(=O)N[C@H](CCc1ccccc1)c1nc(-c2cccnc2Cl)no1 [Compound 54, 2-Diethylamino-ethanesulfonic acid {(R)-1-[3-(2-chloro-pyridin-3-yl)-[1,2,4]oxadiazol-5-yl]-3-phenyl-propyl}-amide] |
| > 7.00 | CCN(CC)CCCS(=O)(=O)N[C@H](CCc1ccccc1)c1nc(Cc2ccc3c(c2)OCO3)no1 [Compound 55, 3-Diethylamino-propane-1-sulfonic acid [(R)-1-(3-benzo[1,3]dioxol-5-ylmethyl-[1,2,4]oxadiazol-5-yl)-3-phenyl-propyl]-amide] |
